Where a SMILES comes first, the peptide text is derived from it. [ ]: non-standard residue; d: D form. Dopa = N[C@@H](Cc1ccc(O)c(O)c1)C(=O)O; Cha = N[C@@H](CC1CCCCC1)C(=O)O
Assays:
[1] = Peptide gelation study by vial inversion test (CGC and gelation time); format: physicochemical; conditions: 1×PBS; for gelation time: vial inversion test
Method: The critical gelation concentration (CGC) and gelation time of hydrogels formed by the catechol peptides in 1×PBS determined by vial inversion test are summarized below:
The peptide powder was dissolved in 0.90 mL of MilliQ® water and vortexed until fully dissolved. Then, 0.10 mL of 10×PBS buffer were added to the peptide solution to reach a final concentration of 1×PBS. Gelation of the solution in the vial was observed by vial inversion method. The time and critical gelation concentration (CGC) at which each peptide formed a hydrogel were recorded.

[2] = AFM force spectroscopy adhesion measurement in liquid; format: physicochemical; conditions: for reduction of adhesion force by addition of NaCl: NaCl versus MilliQ water
Method: In one embodiment, the peptides were dissolved in the proper solution at a concentration of 10 mg/mL. The peptide solutions were spotted on a freshly cleaved mica sheet and the measurement was performed in liquid.
In one embodiment, the adhesion properties of the Dopa peptides are influenced by the construct lysine-Dopa and by the position of the catechol moiety in the peptide sequence, as indicated by the AFM force spectroscopy results in liquid. In a typical force spectroscopy curve the probe is several times approached to the surface and retracted and for every cycle of retraction the maximum force of adhesion is recorded. The incorporation of a catechol moiety near a lysine would enhance adhesion to negatively charged surfaces. FIG. 28 illustrates the effect of lysine on adhesion to negatively charged surfaces. Therefore, probes and substrates that were manifesting negative charges on their surfaces, such as the silicon probe and the freshly cleaved mica substrate, are used in the AFM spectroscopy. The setup of probe and substrate is illustrated in FIG. 29.
The peptides dissolved in the proper solution at 13 mM concentration each, were spotted on a freshly cleaved mica sheet and the measurement was performed in liquid. Several force curves were recorded for different buffers. […] In FIG. 30, the inset image represents the maximum extension of each peptide dissolved in water, when manually pulled between two glass slides. Also in FIG. 30, the approach part of the curve contains the important information defined as “jump to contact”, while the retract part of the F-D curve contains the adhesion force value. […] Two controls were also introduced: namely the original peptide IIZK, and an alternative peptide IIFK. To better understand the influence of Dopa on the adhesion properties of the peptide, the original short peptide IIZK would make a perfect negative control. We also introduced as a control the IIFK peptide in order to understand the effect of IIZK itself on adhesion. In FIG. 32, statistical significance expressed as p<0.01.
AFM topography measurements were performed on a Dimension Icon SPM (Bruker®). The samples were prepared as follows: peptides were dissolved at 13 mM concentration in MilliQ® water; after 30 minutes, 20 μl of these solutions were dropped on freshly cleaved mica sheets and immediately dried with an N2 stream. Measurements were immediately performed in tapping mode in air by the use of an AFM probe AC_240TS_R3 (Olympus®) with nominal free oscillation at roughly 70 kHz and a nominal spring constant of 2 N/m. The probe was calibrated by contact-free method.^54 Free oscillation amplitude was set at 200 mV with a 5% damping during tapping mode measurement. AFM adhesion measurements were performed on a JPK Nanowizard™ III mounted on Olympus® IX-81 inverted optical microscope. A mica sheet was glued one day before the experiment with double component epoxy glue to a glass slide and enclosed in a plastic o-ring provided by the JPK company for liquid measurements. Each peptide was dissolved in MilliQ® water at a concentration of 13 mM and mixed gently. Starting with the measurement in MilliQ® water, 50 μL of the solution were dropped on the freshly cleaved mica sheet within 5 minutes from the preparation of the solution and let equilibrate for 10 minutes. After, the excess solution was removed by pipetting and discarded. Then 1 mL of MilliQ® water was added gently from the side and after 5 minutes, the sample was rinsed 3 times by additional 1 mL MilliQ® water. Finally, the sample was measured by AFM force spectroscopy (Quantitative imaging mode) with additional 1 mL MilliQ® water. The MilliQ® water was exchanged after the measurement alternatively with a water solution containing 137 mM NaCl or 10 mM Phosphate ions (a combination of Na2HPO4·7H2O and NaH2PO4·H2O to reach pH 7.4). After performing the force spectroscopy map in these two different solutions, eventually, the liquid was exchanged with 1×PBS pH 7.4. […]

Structure (SMILES) | critical gelation concentration (CGC) [1] [mg/mL] | gelation time ([1]; peptide 1 mg/mL) | gelation time ([1]; peptide 2 mg/mL) | gelation time ([1]; peptide 3 mg/mL) | gelation time ([1]; peptide 3 mg/mL, listed as IIZKDopa) [min] | gelation time ([1]; peptide 4 mg/mL) [min] | gelation time ([1]; peptide 5 mg/mL) [min] | Force of adhesion (Geometric Mean) ([2]; 10 mM PO4, peptide 13 mM) [PN] | Force of adhesion (Geometric Mean) ([2]; 137 mM NaCl, peptide 13 mM) [PN] | Force of adhesion (Geometric Mean) ([2]; 1×PBS, peptide 13 mM) [PN] | Force of adhesion (Geometric Mean) ([2]; MilliQ water, peptide 13 mM) [PN] | reduction of adhesion force by addition of NaCl [2] | gelation time ([1]; peptide 2 mg/mL, listed as DopaIIZK) [min] | gelation time ([1]; peptide 4 mg/mL, listed as IIZDopaK) [min]
CC[C@H](C)[C@H](NC(C)=O)C(=O)N[C@H](C(=O)N[C@@H](CC1CCCCC1)C(=O)N[C@@H](CCCCN)C(=O)N[C@@H](Cc1ccc(O)c(O)c1)C(N)=O)[C@@H](C)CC [IIZKDo, Ac-Ile-Ile-Cha-Lys-Dopa-NH2] (Ac-II[Cha]K[Dopa]-NH2) | 3 | Not gelating | Not gelating | 30 min | >30 | >21 | >16 | 13.89 | 76.89 | 29.5645 | 73.31 | did not significantly impact |  | 
CC[C@H](C)[C@H](NC(=O)[C@H](Cc1ccc(O)c(O)c1)NC(C)=O)C(=O)N[C@H](C(=O)N[C@@H](CC1CCCCC1)C(=O)N[C@@H](CCCCN)C(N)=O)[C@@H](C)CC [DoIIZK, Ac-Dopa-Ile-Ile-Cha-Lys-NH2] (Ac-[Dopa]II[Cha]K-NH2) | 2 | Not gelating | 45 min | >30 min |  | >20 | >10 | 34.81 | 64.64 | 13.36 | 112.7 | about 50% | >45 | 
CC[C@H](C)[C@H](NC(C)=O)C(=O)N[C@H](C(=O)N[C@@H](CC1CCCCC1)C(=O)N[C@@H](Cc1ccc(O)c(O)c1)C(=O)N[C@@H](CCCCN)C(N)=O)[C@@H](C)CC [IIZDoK, Ac-Ile-Ile-Cha-Dopa-Lys-NH2] (Ac-II[Cha][Dopa]K-NH2) | 4 | Not gelating | Not gelating | Not gelating |  | 80 | >75 | 22.47 | 44.01 | 23.33 | 72 | about 50% |  | >80
